Tested on: 883617-216-R-J1-PDC complex spheroids, growth, % test/control
Experiment: Anticancer human tumor 883617-216-R-J1-PDC patient-derived bladder carcinoma cell line growth inhibition [AhR]
Conditions: for IC50: curve of first compound; for viability, T/C: stronger effect = lower value
In short: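 Complex tumor spheroids co-cultured with HUVEC and human MSC stroma; AhR antagonists tested in combination with standard-of-care and investigational agents. Top concentration at or near clinical Cmax (else 10 microM), half-log dilutions; growth expressed as percent test/control.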

[1] = second compound 0.1 µM, first compound 0.00316 µM
[2] = second compound 0.1 µM, first compound 0.01 µM
[3] = second compound 0.1 µM, first compound 0.0316 µM
[4] = second compound 0.1 µM, first compound 0.1 µM
[5] = second compound 0.316 µM, first compound 0.00316 µM
[6] = second compound 0.316 µM, first compound 0.01 µM
[7] = second compound 0.316 µM, first compound 0.0316 µM
[8] = second compound 0.316 µM, first compound 0.1 µM
[9] = second compound 1 µM, first compound 0.00316 µM
[10] = second compound 1 µM, first compound 0.01 µM
[11] = second compound 1 µM, first compound 0.0316 µM
[12] = second compound 1 µM, first compound 0.1 µM
[13] = second compound 3.16 µM, first compound 0.00316 µM
[14] = second compound 3.16 µM, first compound 0.01 µM
[15] = second compound 3.16 µM, first compound 0.0316 µM
[16] = second compound 3.16 µM, first compound 0.1 µM
[17] = second compound 10 µM, first compound 0.00316 µM
[18] = second compound 10 µM, first compound 0.01 µM
[19] = second compound 10 µM, first compound 0.0316 µM
[20] = second compound 10 µM, first compound 0.1 µM
[21] = second compound 0.1 µM, first compound 0.316 µM
[22] = second compound 0.1 µM, first compound 1 µM
[23] = second compound 0.1 µM, first compound 3.16 µM
[24] = second compound 0.1 µM, first compound 10 µM
[25] = second compound 0.316 µM, first compound 0.316 µM
[26] = second compound 0.316 µM, first compound 1 µM
[27] = second compound 0.316 µM, first compound 3.16 µM
[28] = second compound 0.316 µM, first compound 10 µM
[29] = second compound 1 µM, first compound 0.316 µM
[30] = second compound 1 µM, first compound 1 µM
[31] = second compound 1 µM, first compound 3.16 µM
[32] = second compound 1 µM, first compound 10 µM
[33] = second compound 3.16 µM, first compound 0.316 µM
[34] = second compound 3.16 µM, first compound 1 µM
[35] = second compound 3.16 µM, first compound 3.16 µM
[36] = second compound 3.16 µM, first compound 10 µM
[37] = second compound 10 µM, first compound 0.316 µM
[38] = second compound 10 µM, first compound 1 µM
[39] = second compound 10 µM, first compound 3.16 µM
[40] = second compound 10 µM, first compound 10 µM
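Further: exposure lasted 7 days after dosing on day 3 of spheroid growth.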

Row | Compound | IC50 (second compound 0.1 µM) [nM] | IC50 (second compound 0.316 µM) [nM] | IC50 (second compound 1 µM) [nM] | IC50 (second compound 3.16 µM) [nM] | IC50 (second compound 10 µM) [nM] | viability, T/C [3] [%] | viability, T/C [4] [%] | viability, T/C [7] [%] | viability, T/C [8] [%] | viability, T/C [11] [%] | viability, T/C [12] [%] | viability, T/C [15] [%] | viability, T/C [16] [%] | viability, T/C [19] [%] | viability, T/C [20] [%] | viability, T/C [21] [%] | viability, T/C [22] [%] | viability, T/C [25] [%] | viability, T/C [26] [%] | viability, T/C [29] [%] | further results
1 | CC[C@@]1(O)C(=O)OCc2c1cc1n(c2=O)Cc2cc3c(CN(C)C)c(O)ccc3nc2-1 + Cc1ccccc1N=Nc1ccc(NC(=O)c2ccnn2C)c(C)c1 | > 100 | > 100 | > 100 | > 100 | > 100 | 76.9 | 71.1 | 70 | 62 | 66 | 69.6 | 70.7 | 71.3 | 75.6 | 73 | – | – | – | – | – | viability, T/C (second compound 0.1 µM, first compound 0.000316 µM): 90.7%; viability, T/C (second compound 0.1 µM, first compound 0.001 µM): 85%; viability, T/C [1]: 86.3%; viability, T/C [2]: 80.3%; viability, T/C (second compound 0.316 µM, first compound 0.000316 µM): 86.8%; viability, T/C (second compound 0.316 µM, first compound 0.001 µM): 86.6%; viability, T/C [5]: 76.2%; viability, T/C [6]: 73%; viability, T/C (second compound 1 µM, first compound 0.000316 µM): 82.5%; viability, T/C (second compound 1 µM, first compound 0.001 µM): 80.3%; viability, T/C [9]: 79.4%; viability, T/C [10]: 71.4%; viability, T/C (second compound 3.16 µM, first compound 0.000316 µM): 70%; viability, T/C (second compound 3.16 µM, first compound 0.001 µM): 79.1%; viability, T/C [13]: 78.6%; viability, T/C [14]: 74.7%; viability, T/C (second compound 10 µM, first compound 0.000316 µM): 74.2%; viability, T/C (second compound 10 µM, first compound 0.001 µM): 80.7%; viability, T/C [17]: 78%; viability, T/C [18]: 70.9%
2 | COc1cc(C2c3cc4c(cc3C(OC3OC5COC(C)OC5C(O)C3O)C3COC(=O)C23)OCO4)cc(OC)c1O (stereo not given) + Cc1ccccc1N=Nc1ccc(NC(=O)c2ccnn2C)c(C)c1 | > 10000 | > 10000 | > 10000 | > 10000 | > 10000 | 86.4 | 83.5 | 80.8 | 86.7 | 80.7 | 82 | 73 | 72.7 | 67.8 | 77.5 | 69.7 | 68 | 77.3 | 69 | 75.7 | viability, T/C [23]: 69.5%; viability, T/C [24]: 57.4%; viability, T/C [27]: 70.2%; viability, T/C [28]: 57.6%; viability, T/C [30]: 64.6%; viability, T/C [31]: 72.1%; viability, T/C [32]: 54.2%; viability, T/C [33]: 71.1%; viability, T/C [34]: 61.2%; viability, T/C [35]: 70.9%; viability, T/C [36]: 56.4%; viability, T/C [37]: 73.2%; viability, T/C [38]: 65.6%; viability, T/C [39]: 63.5%; viability, T/C [40]: 57.1%
3 | COc1cccc2c1C(=O)c1c(O)c3c(c(O)c1C2=O)CC(O)(C(=O)CO)CC3OC1CC(N)C(O)C(C)O1 (stereo not given) + Cc1ccccc1N=Nc1ccc(NC(=O)c2ccnn2C)c(C)c1 | 284 | 255 | 339 | 258 | 380 | 66.5 | 60.6 | 67.5 | 61.3 | 56.8 | 63.4 | 66.5 | 56 | 58.6 | 57.3 | 48.4 | 22.7 | 47.5 | 16.7 | 51.5 | viability, T/C [23]: 0.11%; viability, T/C [24]: 0.14%; viability, T/C [27]: 0.12%; viability, T/C [28]: 0.15%; viability, T/C [30]: 16.5%; viability, T/C [31]: 0.12%; viability, T/C [32]: 0.65%; viability, T/C [33]: 48.7%; viability, T/C [34]: 11.9%; viability, T/C [35]: 0.12%; viability, T/C [36]: 0.5%; viability, T/C [37]: 57.8%; viability, T/C [38]: 8.97%; viability, T/C [39]: 0.18%; viability, T/C [40]: 0.21%
4 | Nc1ncn(C2CC(O)C(CO)O2)c(=O)n1 (stereo not given) + Cc1ccccc1N=Nc1ccc(NC(=O)c2ccnn2C)c(C)c1 | > 1000 | > 1000 | > 1000 | > 1000 | > 1000 | 83.6 | 82.8 | 87.8 | 80.1 | 101 | 77.9 | 75.8 | 72.8 | 74.3 | 77.7 | 75.5 | 73.1 | 78.8 | 76.6 | 67.6 | viability, T/C [1]: 89.3%; viability, T/C [2]: 94.7%; viability, T/C [5]: 82.9%; viability, T/C [6]: 83.5%; viability, T/C [9]: 79.9%; viability, T/C [10]: 88.1%; viability, T/C [30]: 77.1%; viability, T/C [13]: 71.1%; viability, T/C [14]: 84.2%; viability, T/C [33]: 79.6%; viability, T/C [34]: 81.2%; viability, T/C [17]: 84.7%; viability, T/C [18]: 79.2%; viability, T/C [37]: 74.2%; viability, T/C [38]: 77.9%
